Experimental data taken from patent US20230365602A1, “COMPOUND FOR USE IN THE TREATMENT OF PROTOZOAL DISEASES AND PROCESS FOR PRODUCTION OF SAID COMPOUND” (QUADREL S.R.L., priority 2020, published 2023).
“Also recorded” adds a separate entry of the source. Where two headings read alike, the source gives them in different places.

Assays:
[1] = tested on: PMA-differentiated THP-1 cells; experiment: Toxicity MTT assay in PMA-differentiated THP-1 cells; format: cell-based, human; conditions: for CC50: read-out: Toxicity CC50 ± SD or NOAEL
Text: (§1) The in vitro antiparasitic activity against L. infantum (MHOM/MA/67/ITMAP-263) and the toxicity against THP-1 macrophages is presented in Table 1.

[2] = as above; format: cell-based, human; conditions: human, PMA-differentiated THP-1 cells (macrophages); for CC50: THP-1 macrophages, Table 1, read-out: Toxicity CC50 ± SD or NOAEL; for IC50: Table 4b, read-out: Cytotoxicity THP-1 (IC50)
Text: as §1

[3] = tested on: L. infantum (MHOM/MA/67/ITMAP-263) intracellular amastigotes; experiment: Anti-parasitic activity against L. infantum intracellular amastigotes (infection with axenic amastigotes luciferase positive); format: cell-based; conditions: Table 1; for inhibition at 10 µM / IC50: Leishmania infantum; for inhibition at 10 µM: read-out: Single Dose Assay 10 μM Mean Inhibitory Activity (%) ± SD; for IC50: read-out: Dose Response Curves IC50 ± SD; for Selectivity Index CC50/IC50 or NOAEL/IC50: THP-1 toxicity / L. infantum IC50
[4] = molecular target: CYP2C19 (Homo sapiens, UniProt P33261); experiment: Early toxicity: CYP2C19 inhibition; format: in vitro ADME; conditions: Table 4a; for inhibition at 10 µM: human
[5] = tested on: T. b. brucei L427 WT Blood-Stream Form; experiment: Anti-parasitic activity against T. b. brucei blood-stream form (resazurin 72 h assay); format: cell-based; conditions: Table 2; for inhibition at 10 µM: Trypanosoma brucei, read-out: Single Dose Assay 10 μM Mean Inhibitory Activity (%) ± SD
[6] = tested on: mitochondria; experiment: Early toxicity: mitochondrial toxicity; format: cell-based; conditions: for % mitochondrial toxicity: 10 μM, 100% mitotoxic, 0% not mitotoxic; for mitochondrial toxicity: Table 4b
[7] = molecular target: hERG channel (Homo sapiens, UniProt Q12809); experiment: Early toxicity: hERG inhibition; conditions: for inhibition at 10 µM: human
[8] = tested on: A549; experiment: Early toxicity: A549 cell growth; format: cell-based; conditions: 10 μM; 100% = not cytotoxic, 0% = cytostatic, −100% = cytotoxic
[9] = molecular target: CYP2D6 (Homo sapiens, UniProt P10635); experiment: Early toxicity: CYP2D6 inhibition; format: in vitro ADME; conditions: Table 4a; for inhibition at 10 µM: human
[10] = molecular target: CYP2C9 (Homo sapiens, UniProt P11712); experiment: Early toxicity: CYP2C9 inhibition; format: in vitro ADME; conditions: mean ± SD, Table 4a; for inhibition at 10 µM: human
[11] = molecular target: T1, CYP1A2 (Homo sapiens, UniProt P05177); experiment: Early toxicity: CYP1A2 inhibition; format: in vitro ADME; conditions: mean ± SD, Table 4a; for inhibition at 10 µM: human
T1 sequence (P05177 1-516): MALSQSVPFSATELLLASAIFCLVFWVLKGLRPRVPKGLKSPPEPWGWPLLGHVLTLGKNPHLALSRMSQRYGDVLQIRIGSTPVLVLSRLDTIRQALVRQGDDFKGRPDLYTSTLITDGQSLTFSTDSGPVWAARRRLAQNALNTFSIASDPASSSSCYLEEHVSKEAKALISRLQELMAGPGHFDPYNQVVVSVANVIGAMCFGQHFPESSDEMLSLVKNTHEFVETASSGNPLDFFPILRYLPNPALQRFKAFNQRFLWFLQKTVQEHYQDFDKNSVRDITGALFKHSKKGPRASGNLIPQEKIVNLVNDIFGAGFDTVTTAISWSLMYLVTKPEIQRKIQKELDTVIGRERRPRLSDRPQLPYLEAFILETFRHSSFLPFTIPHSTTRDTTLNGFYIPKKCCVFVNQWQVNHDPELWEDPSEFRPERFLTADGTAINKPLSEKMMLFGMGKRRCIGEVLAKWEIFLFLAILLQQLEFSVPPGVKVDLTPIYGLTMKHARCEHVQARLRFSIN

[12] = molecular target: CYP3A4 (Homo sapiens, UniProt P08684); experiment: Early toxicity: CYP3A4 inhibition; format: in vitro ADME; conditions: Table 4a; for inhibition at 10 µM: human, read-out: % inhibition CYP3A4
[13] = Snapshot pharmacokinetics in plasma after oral gavage; format: in vivo, mice; conditions: mouse, plasma, po, healthy BALB/c mice, 20 mg/kg gavage, Table 13
Protocol: Pharmacology of 5-cyclopentadecylpentyl (2-(trimethylammonio)ethyl) phosphate (19) in mice.
Blood samples were collected from the tail vein at 0, 0.5, 0.75, 1, 3, 24 and 72 hours into heparinized tubes. Moreover, biodistribution of the molecule, 72h after administration, was determined in several organs of the treated mice, namely brain, liver, spleen, kidney, heart and bone marrow. […] J Chromatogr B, 865: 55-62) by liquid chromatography mass spectrometry (LC-MS/MS).

[14] = tested on: W1-38; experiment: Early toxicity: W1-38 cell growth; format: cell-based; conditions: 10 μM
[15] = tested on: T. b. brucei GVR35; experiment: Stage II HAT mice model, live imaging; format: in vivo

CYP3A4, sequence (P08684 whole entry): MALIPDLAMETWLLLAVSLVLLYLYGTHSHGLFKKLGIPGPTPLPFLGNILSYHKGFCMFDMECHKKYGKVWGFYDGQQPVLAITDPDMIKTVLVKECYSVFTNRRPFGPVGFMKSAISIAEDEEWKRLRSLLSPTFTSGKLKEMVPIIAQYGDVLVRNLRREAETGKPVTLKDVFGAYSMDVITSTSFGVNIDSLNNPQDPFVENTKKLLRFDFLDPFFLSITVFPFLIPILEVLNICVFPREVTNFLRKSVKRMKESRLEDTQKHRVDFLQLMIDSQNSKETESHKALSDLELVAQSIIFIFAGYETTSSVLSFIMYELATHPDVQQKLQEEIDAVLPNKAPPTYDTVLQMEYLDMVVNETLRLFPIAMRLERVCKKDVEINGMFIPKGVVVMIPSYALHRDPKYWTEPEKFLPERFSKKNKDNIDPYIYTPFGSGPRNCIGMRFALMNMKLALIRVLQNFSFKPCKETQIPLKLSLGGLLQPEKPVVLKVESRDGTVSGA
CYP2C19, sequence (P33261 whole entry): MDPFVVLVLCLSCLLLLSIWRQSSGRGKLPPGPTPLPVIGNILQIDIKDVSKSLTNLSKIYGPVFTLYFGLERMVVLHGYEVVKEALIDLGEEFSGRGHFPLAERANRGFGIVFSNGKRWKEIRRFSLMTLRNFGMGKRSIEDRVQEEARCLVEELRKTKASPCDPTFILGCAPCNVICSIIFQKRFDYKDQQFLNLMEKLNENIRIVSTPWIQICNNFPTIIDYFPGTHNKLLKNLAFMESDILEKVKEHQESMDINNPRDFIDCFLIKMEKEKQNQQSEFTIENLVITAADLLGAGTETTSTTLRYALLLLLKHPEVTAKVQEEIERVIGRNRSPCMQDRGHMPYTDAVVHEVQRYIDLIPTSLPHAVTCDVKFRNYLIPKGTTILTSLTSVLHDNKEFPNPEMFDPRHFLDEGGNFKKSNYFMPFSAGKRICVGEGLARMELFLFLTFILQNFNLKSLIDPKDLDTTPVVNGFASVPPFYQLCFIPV
hERG channel, sequence (Q12809 whole entry): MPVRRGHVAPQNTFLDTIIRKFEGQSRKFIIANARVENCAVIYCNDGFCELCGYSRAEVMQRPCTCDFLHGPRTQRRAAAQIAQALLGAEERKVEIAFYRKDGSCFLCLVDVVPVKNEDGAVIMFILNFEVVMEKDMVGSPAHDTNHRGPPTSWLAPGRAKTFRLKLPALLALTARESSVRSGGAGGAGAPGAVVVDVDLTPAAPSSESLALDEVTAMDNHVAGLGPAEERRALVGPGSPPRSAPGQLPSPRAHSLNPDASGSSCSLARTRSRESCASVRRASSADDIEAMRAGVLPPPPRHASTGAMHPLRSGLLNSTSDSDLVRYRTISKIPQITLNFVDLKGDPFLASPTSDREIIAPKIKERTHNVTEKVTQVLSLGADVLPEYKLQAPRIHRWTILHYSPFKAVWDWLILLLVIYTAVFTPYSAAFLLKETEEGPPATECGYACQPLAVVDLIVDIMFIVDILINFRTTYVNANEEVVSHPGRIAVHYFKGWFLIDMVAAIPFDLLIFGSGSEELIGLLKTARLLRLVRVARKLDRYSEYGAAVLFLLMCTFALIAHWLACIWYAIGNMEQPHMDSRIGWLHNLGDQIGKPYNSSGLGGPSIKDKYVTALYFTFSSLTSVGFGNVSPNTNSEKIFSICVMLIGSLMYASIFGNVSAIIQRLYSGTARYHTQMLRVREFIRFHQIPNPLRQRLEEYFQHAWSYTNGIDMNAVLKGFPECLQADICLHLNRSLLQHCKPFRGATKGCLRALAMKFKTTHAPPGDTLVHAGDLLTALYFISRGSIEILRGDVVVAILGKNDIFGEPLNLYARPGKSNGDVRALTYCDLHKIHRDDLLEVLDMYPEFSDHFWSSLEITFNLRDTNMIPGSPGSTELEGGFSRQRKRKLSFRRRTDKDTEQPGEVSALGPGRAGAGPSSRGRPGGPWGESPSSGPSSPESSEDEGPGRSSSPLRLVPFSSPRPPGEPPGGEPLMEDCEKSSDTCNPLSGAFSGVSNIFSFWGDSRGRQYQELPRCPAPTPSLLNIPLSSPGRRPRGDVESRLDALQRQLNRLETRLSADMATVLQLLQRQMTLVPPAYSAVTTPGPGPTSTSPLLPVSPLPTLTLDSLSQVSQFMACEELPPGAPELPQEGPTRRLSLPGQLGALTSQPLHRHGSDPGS
CYP2C9, sequence (P11712 whole entry): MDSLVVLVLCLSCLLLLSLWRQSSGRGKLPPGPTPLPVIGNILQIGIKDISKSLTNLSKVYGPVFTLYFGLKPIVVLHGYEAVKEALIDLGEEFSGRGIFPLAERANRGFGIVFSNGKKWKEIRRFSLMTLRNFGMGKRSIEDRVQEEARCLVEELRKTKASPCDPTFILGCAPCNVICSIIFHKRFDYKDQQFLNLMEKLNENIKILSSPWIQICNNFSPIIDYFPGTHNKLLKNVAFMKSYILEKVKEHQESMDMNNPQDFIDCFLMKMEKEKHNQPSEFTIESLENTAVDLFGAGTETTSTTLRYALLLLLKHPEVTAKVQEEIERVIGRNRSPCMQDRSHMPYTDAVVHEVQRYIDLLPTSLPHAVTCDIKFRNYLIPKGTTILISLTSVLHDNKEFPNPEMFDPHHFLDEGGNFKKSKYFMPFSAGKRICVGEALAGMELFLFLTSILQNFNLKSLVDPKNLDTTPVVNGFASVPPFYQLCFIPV
CYP2D6, sequence (P10635 whole entry): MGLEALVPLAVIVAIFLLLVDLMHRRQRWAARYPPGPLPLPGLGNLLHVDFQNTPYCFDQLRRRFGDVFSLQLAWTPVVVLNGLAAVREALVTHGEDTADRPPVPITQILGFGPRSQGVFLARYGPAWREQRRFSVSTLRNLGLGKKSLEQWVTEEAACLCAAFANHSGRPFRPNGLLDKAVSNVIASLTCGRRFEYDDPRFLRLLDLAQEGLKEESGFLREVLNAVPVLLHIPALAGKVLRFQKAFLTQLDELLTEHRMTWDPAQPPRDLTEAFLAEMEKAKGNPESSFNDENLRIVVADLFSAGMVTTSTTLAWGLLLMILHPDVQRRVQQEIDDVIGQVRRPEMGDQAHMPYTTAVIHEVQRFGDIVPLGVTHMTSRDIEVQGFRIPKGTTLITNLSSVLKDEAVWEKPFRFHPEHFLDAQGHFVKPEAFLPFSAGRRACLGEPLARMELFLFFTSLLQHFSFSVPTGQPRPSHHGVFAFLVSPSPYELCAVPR

| SMILES | CC50 ([1]; Table 2) [µM] | CC50 [2] [µM] | inhibition at 10 µM ([3]; 10 μM) [%] | IC50 [3] [µM] | Selectivity Index CC50/IC50 or NOAEL/IC50 [3] | IC50 [2] [µM] | inhibition at 10 µM ([4]; mean ± SD) [%] | % mitochondrial toxicity [6] [%] | mitochondrial toxicity [6] | Flag for Interference, hERG ([7]; Table 4b) | inhibition at 10 µM [7] [%] | % cell growth A549 [8] [%] | inhibition at 10 µM ([9]; mean ± SD) [%] | inhibition at 10 µM [10] [%] | inhibition at 10 µM [11] [%] | inhibition at 10 µM ([12]; 10 μM, mean ± SD) [%] | also measured |
| --- | --- | --- | --- | --- | --- | --- | --- | --- | --- | --- | --- | --- | --- | --- | --- | --- | --- |
| C[N+](C)(C)CCOP(=O)([O-])OCCCC=C1CCCCCCCCCCC1 [Compound 11, 4-cyclododecylidenebutyl (2-(trimethylammonio)ethyl) phosphate] | > 100 | > 100 | 76 ± 22 | 2.59 ± 0.94 | >38.6 |  |  |  |  |  |  |  |  |  |  |  |  |
| C[N+](C)(C)CCOP(=O)([O-])OCCCCC=C1CCCCCCCCCCC1 [Compound 12, 5-cyclododecylidenepentyl (2-(trimethylammonio)ethyl) phosphate] | > 100 | > 100 | 95 ± 2 | 0.9 ± 0.7 | >111 | > 100 | 11.2 ± 5.4 | 113.57 ± 12.08 | exhibit mitochondrial toxicity | (no) | -2.04 ± 7.61 | 130.21 ± 5.63 | 15.1 ± 2.98 | 1.76 ± 1.59 | 10.2 ± 5.03 | 35.7 ± 6.01 | inhibition at 10 µM ([5]; 10 μM): 8 ± 8% |
| C[N+](C)(C)CCOP(=O)([O-])OCCCCC1CCCCCCCCCCC1 [Compound 16, 4-cyclododecylbutyl (2-(trimethylammonio)ethyl) phosphate] | > 100 | > 100 | 87 ± 17 | 0.86 ± 0.33 | >116 |  |  |  |  |  |  |  |  |  |  |  |  |
| C[N+](C)(C)CCOP(=O)([O-])OCCCCCC1CCCCCCCCCCC1 [Compound 17, 5-cyclododecylpentyl (2-(trimethylammonio)ethyl) phosphate] | > 100 | > 100 | 96 ± 2 | 0.6 ± 0.2 | >166 | > 100 | 35.9 ± 4.97 | 110.46 ± 13.08 | exhibit mitochondrial toxicity | (no) | 26.3 ± 12.9 | 121.61 ± 8.94 | 48.9 ± 2.97 | 10.3 ± 6.3 | 18.9 ± 0.69 | 55.3 ± 4.28 | AUC(0-inf) ([13]; read-out: AUC (0-∞)): 11300 ng·h/mL; AUC(0-inf) ([13]; read-out: AUC (0-∞) (μM h/mL)): 26.9 µM·h; Cmax ([13]; read-out: Cmax): 4.88 µM; Cmax ([13]; read-out: Cmax (μg/mL)): 2.05 µg/mL; Tmax ([13]; read-out: tmax): 3 h; half-life ([13]; read-out: t½ (converted)): 6.9 h; CYP2C19 interaction / inhibition ([4]; 10 μM): interact; also recorded: significant inhibition; activity against T. b. brucei blood-stream form [5]: unexpectedly high activity in the low micromolar range; inhibition at 10 µM ([5]; 10 μM): 21 ± 15%; CYP2D6 interaction / inhibition ([9]; 10 μM): interact; also recorded: significant inhibition; CYP3A4 interaction [12]: interact |
| C[N+](C)(C)CCCOP(=O)([O-])OCCCCCC1CCCCCCCCCCCCCC1 [Compound 20, 5-cyclonentadecyloentyl (3-(trimethylammonio)propyl) phosohate] | > 100 |  |  |  |  |  |  | −3.82 ± 5.49 |  | (no) |  | 104.50 ± 4.67 |  |  |  |  | CC50 ([1]; THP-1 macrophages, Table 1): > 100 µM; IC50 ([1]; Table 4b, read-out: Cytotoxicity THP-1 (IC50)): > 100 µM; % inhibition CYP2C19 ([4]; 10 μM, mean ± SD): 52.28 ± 5.17%; Single Dose Assay 10 μM Mean Inhibitory Activity (%) ± SD ([5]; 10 μM): 24 ± 10%; % inhibition hERG ([7]; 10 μM, Table 4b): 4.56 ± 15.55%; % inhibition CYP2D6 ([9]; 10 μM, mean ± SD): 44.01 ± 3.51%; % inhibition CYP2C9 ([10]; 10 μM): 15.44 ± 0.53%; % inhibition CYP1A2 ([11]; 10 μM): 10.14 ± 3.87%; % cell growth W1-38 [14]: 98.77 ± 10.61%; Single Dose Assay 10 μM Mean Inhibitory Activity (%) ± SD ([3]; 10 μM): 53 ± 6%; % inhibition CYP3A4 ([12]; 10 μM, mean ± SD): 22.83 ± 5.05% |
| C[N+](C)(C)CCOP(=O)([O-])OCCC1CCCCCCCCCCC1 [Compound 27, 2-cyclododecylethyl (2-(trimethylammonio)ethyl) phosphate] |  | > 100 | 36 ± 5 |  |  | > 100 | 11 ± 5.72 | 113.87 ± 2.81 |  | (no) | -4.11 ± 10.4 | 126.46 ± 6.12 | 6.92 ± 4.21 | 13.7 ± 6.52 | 22.2 ± 1.59 | 24.8 ± 3.15 |  |
| C[N+](C)(C)CCOP(=O)([O-])OCCC1CCCCCCCCCCCCCC1 [Compound 28, 2-cyclopentadecylethyl (2-(trimethylammonio)ethyl) phosphate] |  | > 100 | 70 ± 7 | 1.12 ± 0.45 | >90 | > 100 | 21.3 ± 3.7 | 119.09 ± 14.82 | exhibit mitochondrial toxicity | (no) | 39 ± 5.84 | 120.79 ± 0.63 | 37.7 ± 3.27 | 9.6 ± 4.6 | 15.6 ± 2.12 | 27.8 ± 1.95 |  |
| Nc1nc(N)nc(Nc2ccc([As]3SCC(CO)S3)cc2)n1 (centres unmarked) [melarsoprol, reference compound] |  |  |  |  |  |  |  |  |  |  |  |  |  |  |  |  | infection outcome (words) ([15]; 10 mg/kg/day IP, 7 days of treatment): able to clear the infection |
| N=C(N)c1ccc(OCCCCCOc2ccc(C(=N)N)cc2)cc1 [pentamidine, reference compound] |  |  |  |  |  |  |  |  |  |  |  |  |  |  |  |  | infection in the brain ([15]; 5 mg/kg/day IP): not able to clear infection in the brain |
